ChEMBL document CHEMBL6114949, “Synthesis and physiological effects of new 4-aminophenol derivatives as paracetamol analogues” (Bioorg Med Chem Lett, 2025)
The source made the active and inactive calls. The rule behind the calls is not given here.

Assays:
Rattus norvegicus [1] = experiment: Antinociceptive activity in zymosan-induced rat model of thermal nociceptive hypersensitivity assessed as nociceptive response inhibition at 80 mg/kg, ig administered once daily for 7 days and measured 1 hr post-zymosan challenge on day 7 by hot-plate test (reference value: -42.4%); type: functional; settings: po, 168 h, time 7 day
Rattus norvegicus [2] = experiment: Antipyretic activity against LPS-induced polyphasic febrile response in rats assessed as return of body temperature to background value at 80 mg/kg, po treated 40 mins prior to LPS addition and measured after 245 mins; type: functional, organism-based; settings: time 285.0 min
Rattus norvegicus [3] = experiment: Antipyretic activity against LPS-induced polyphasic febrile response in rats assessed as change in core body temperature at 80 mg/kg, po treated 40 mins prior to LPS addition and measured after 10 mins during phase 1 (reference value: 0.85 deg C); type: functional, organism-based; settings: time 50.0 min
Rattus norvegicus [4] = experiment: Antinociceptive activity in zymosan-induced rat arthritis model assessed as nociceptive response inhibition at 80 mg/kg, ig administered once daily for 7 days and measured 1 hr post-zymosan challenge on day 7 by Randall-Selitto test (reference value: -34.6%); type: functional; settings: po, 168 h, time 7 day
Rattus norvegicus [5] = experiment: Antinociceptive activity in zymosan-induced rat model of thermal nociceptive hypersensitivity assessed as nociceptive response inhibition at 180 mg/kg, ig administered once daily for 7 days and measured 1 hr post-zymosan challenge on day 7 by hot-plate test (reference value: -42.4%); type: functional; settings: po, 168 h, time 7 day
Rattus norvegicus [6] = experiment: Antipyretic activity against LPS-induced polyphasic febrile response in rats assessed as suppression of rise in core body temperature at 180 mg/kg, po treated 40 mins prior to LPS addition and measured after 160 mins relative to control; type: functional; settings: time 200 min, 3.333 h
[7] = Hepatotoxicity in zymosan-induced rat arthritis model assessed as effect on sinusoids elongation at 180 mg/kg, ig administered once daily for 7 days by hematoxylin-eosin staining based histological analysis; type: toxicity, organism-based, Liver; settings: in vivo, po, 168 h, time 7 day
Rattus norvegicus [8] = experiment: Antipyretic activity against LPS-induced polyphasic febrile response in rats assessed as suppression of rise in core body temperature at 180 mg/kg, po treated 40 mins prior to LPS addition and measured after 200 mins; type: functional, organism-based; settings: time 240.0 min
[9] = Hepatotoxicity in zymosan-induced rat arthritis model assessed as appearance of vacuoles in hepatocyte cytoplasm at 180 mg/kg, ig administered once daily for 7 days by hematoxylin-eosin staining based histological analysis; type: toxicity, organism-based, Liver; settings: in vivo, po, 168 h, time 7 day
[10] = Hepatotoxicity in zymosan-induced rat arthritis model assessed as effect on sinusoids arrangement at 180 mg/kg, ig administered once daily for 7 days by hematoxylin-eosin staining based histological analysis; type: toxicity, organism-based, Liver; settings: in vivo, po, 168 h, time 7 day
[11] = Hepatotoxicity in zymosan-induced rat arthritis model assessed as change in hepatocyte nucleus size at 180 mg/kg, ig administered once daily for 7 days by hematoxylin-eosin staining based histological analysis; type: toxicity, organism-based, Liver; settings: in vivo, po, 168 h, time 7 day
Rattus norvegicus [12] = experiment: Antipyretic activity against LPS-induced polyphasic febrile response in rats assessed as change in core body temperature at 180 mg/kg, po treated 40 mins prior to LPS addition and measured after 160 mins during phase 1 (reference value: 0.85 deg C); type: functional, organism-based; settings: time 200.0 min
[13] = Hepatotoxicity in zymosan-induced rat arthritis model assessed as disruption of hepatocyte membrane at 180 mg/kg, ig administered once daily for 7 days by hematoxylin-eosin staining based histological analysis; type: toxicity, organism-based, Liver; settings: in vivo, po, 168 h, time 7 day
Rattus norvegicus [14] = experiment: Antinociceptive activity in zymosan-induced rat arthritis model assessed as nociceptive response inhibition at 180 mg/kg, ig administered once daily for 7 days and measured 1 hr post-zymosan challenge on day 7 by Randall-Selitto test (reference value: -34.6%); type: functional; settings: po, 168 h, time 7 day
[15] = Hepatotoxicity in zymosan-induced rat arthritis model assessed as change in shape of liver portal tracts at 180 mg/kg, ig administered once daily for 7 days by hematoxylin-eosin staining based histological analysis; type: toxicity, organism-based; settings: in vivo, po, 168 h, time 7 day
[16] = Hepatotoxicity in zymosan-induced rat arthritis model assessed as effect on general architecture of liver at 180 mg/kg, ig administered once daily for 7 days by hematoxylin-eosin staining based histological analysis; type: toxicity, organism-based; settings: in vivo, po, 168 h, time 7 day
[17] = Hepatotoxicity in zymosan-induced rat arthritis model assessed as effect on beam structure of liver at 180 mg/kg, ig administered once daily for 7 days by hematoxylin-eosin staining based histological analysis; type: toxicity, organism-based; settings: in vivo, po, 168 h, time 7 day
Rattus norvegicus [18] = experiment: Antipyretic activity against LPS-induced polyphasic febrile response in rats assessed as suppression of rise in core body temperature at 180 mg/kg, po treated 40 mins prior to LPS addition and measured after 10 mins; type: functional, organism-based; settings: time 50.0 min
[19] = Hepatotoxicity in zymosan-induced rat arthritis model assessed as change in hepatocyte karyoplasm at 180 mg/kg, ig administered once daily for 7 days by hematoxylin-eosin staining based histological analysis; type: toxicity, organism-based, Liver; settings: in vivo, po, 168 h, time 7 day
[20] = Hepatotoxicity in zymosan-induced rat arthritis model assessed as change in hepatocyte shape at 180 mg/kg, ig administered once daily for 7 days by hematoxylin-eosin staining based histological analysis; type: toxicity, organism-based, Liver; settings: in vivo, po, 168 h, time 7 day
[21] = Hepatotoxicity in zymosan-induced rat arthritis model assessed as change in shape of liver central veins at 180 mg/kg, ig administered once daily for 7 days by hematoxylin-eosin staining based histological analysis; type: toxicity, organism-based; settings: in vivo, po, 168 h, time 7 day
[22] = Hepatotoxicity in zymosan-induced rat arthritis model assessed as change in hepatocyte cytoplasmic appearance at 180 mg/kg, ig administered once daily for 7 days by hematoxylin-eosin staining based histological analysis; type: toxicity, organism-based, Liver; settings: in vivo, po, 168 h, time 7 day

SMILES: CC(=O)Nc1ccc(O)cc1 [ACETAMINOPHEN]
- inhibition in vivo at 80 mg/kg (Rattus norvegicus [1]): 53%
- Activity (Rattus norvegicus [2]): Active
- ΔTm (Rattus norvegicus [3]): 0.34 °C
- inhibition in vivo at 80 mg/kg (Rattus norvegicus [4]): 28.5%

SMILES: CCCCCCCC(=O)Nc1ccc(OCC(=O)NCCO)cc1
- inhibition in vivo at 180 mg/kg (Rattus norvegicus [5]): 12.3%
- fold change (FC) (Rattus norvegicus [6]): 3
- Activity [7]: Non-toxic
- Activity (Rattus norvegicus [8]): Active
- Activity [9]: Non-toxic
- Activity [10]: Non-toxic
- Activity [11]: Non-toxic
- ΔTm (Rattus norvegicus [12]): 0.28 °C
- Activity [13]: Non-toxic
- inhibition in vivo at 180 mg/kg (Rattus norvegicus [14]): 48.1%
- Activity [15]: Non-toxic
- Activity [16]: Non-toxic
- Activity [17]: Non-toxic
- Activity (Rattus norvegicus [18]): Active
- Activity [19]: Non-toxic
- Activity [20]: Non-toxic
- Activity [21]: Non-toxic
- Activity [22]: Non-toxic
